Measurements taken from patent US20040121946A9, “Inducing cellular immune responses to her2/neu using peptide and nucleic acid compositions” (priority 2002, published 2004).
Where two headings read alike, the source gives them in different places. Where a SMILES comes first, the peptide text is derived from it. Where no end group is shown, it is not given here. [ ]: non-standard residue; d: D form. Abu = CC[C@H](N)C(=O)O

Tests used:
HLA-A*0201 = HLA-A*0201 (Homo sapiens, UniProt P04439, D140Y/D185E/D98H/E176V/E277Q/G131W/G231S/I119V/I121R/I166T/I218V/L300P/L318F/N151K/N90K/P208A/P217A/Q86G/Q94H/R138H/R169H/T345S); assay type: binding
[1] = test system: tumor targets that endogenously express HER2/neu (colon adenocarcinoma cell lines SW403 and HT-29); assay: Primary in vitro CTL induction, recognition of wild-type peptide and endogenous tumor targets (51Cr release / in situ IFNγ ELISA); assay type: cell-based, human; conditions: for recognition of wild-type peptide and of tumor targets endogenously expressing HER2/neu by induced CTL: in vitro, expanded positive cultures; for CTL Tumor / CTL Wildtype: number of donors yielding a positive response/total tested, normal donors
[2] = test system: .221A2.1 cell line, peptide-loaded target; assay: Primary in vitro CTL induction, peptide-specific recognition (51Cr release / in situ IFNγ ELISA); assay type: cell-based, human; conditions: normal donors, peptide-pulsed targets
Method: The colon adenocarcinoma cell lines SW403 and HT-29 were obtained from the American Type Culture Collection (ATCC) (Rockville, Md.). The cell lines that were obtained from ATCC were maintained under the culture conditions recommended by the supplier. […] The colon cancer cells were treated with 100U/ml IFNγ (Genzyme) for 48 hours at 37° C. before use as targets in the ^51Cr release and in situ IFNγ assays.
The monocytes were purified by plating 10×10^6 PBMC/well in a 6-well plate. After 2 hours at 37° C., the non-adherent cells were removed by gently shaking the plates and aspirating the supernatants. The wells were washed a total of three times with 3 ml RPMI to remove most of the non-adherent and loosely adherent cells. Three ml of complete medium containing 50 ng/ml of GM-CSF and 1,000 U/ml of IL-4 were then added to each well. DC were used for CTL induction cultures following 7 days of culture.
Induction of CTL with DC and Peptide: CD8+ T-cells were isolated by positive selection with Dynal immunomagnetic beads (Dynabeads® M-450) and the detacha-bead® reagent. Typically about 200-250×10^6 PBMC were processed to obtain 24×10^6 CD8^+ T-cells (enough for a 48-well plate culture). Briefly, the PBMCs were thawed in RPMI with 30 μg/ml DNAse, washed once with PBS containing 1% human AB serum and resuspended in PBS/1% AB serum at a concentration of 20×10^6cells/ml. The magnetic beads were washed 3 times with PBS/AB serum, added to the cells (140 μl beads/20×10^6 cells) and incubated for 1 hour at 4° C. with continuous mixing. The beads and cells were washed 4× with PBS/AB serum to remove the nonadherent cells and resuspended at 100×10^6 cells/ml (based on the original cell number) in PBS/AB serum containing 100 μl/ml detacha-bead® reagent and 30 μg/ml DNAse. The mixture is incubated for 1 hour at room temperature with continuous mixing. The beads were washed again with PBS/AB/DNAse to collect the CD8+ T-cells. The DC were collected and centrifuged at 1300 rpm for 5-7 minutes, washed once with PBS with 1% BSA, counted and pulsed with 40 μg/ml of peptide at a cell concentration of 1-2×10^6/ml in the presence of 3 μg/ml β2-microglobulin for 4 hours at 20° C. The DC were then irradiated (4,200 rads), washed 1 time with medium and counted again.
Setting up induction cultures: 0.25 ml cytokine-generated DC (@1×10^5 cells/ml) were co-cultured with 0.25 ml of CD8+ T-cells (@2×10^6 cell/ml) in each well of a 48-well plate in the presence of 10 ng/ml of IL-7. rHuman IL10 was added the next day at a final concentration of 10 ng/ml and rhuman IL2 was added 48 hours later at 10 IU/ml.
Restimulation of the induction cultures with peptide-pulsed adherent cells: Seven and fourteen days after the primary induction the cells were restimulated with peptide-pulsed adherent cells. The PBMCS were thawed and washed twice with RPMI and DNAse. The cells were resuspended at 5×10^6 cells/ml and irradiated at ˜4200 rads. The PBMCs were plated at 2×10^6 in 0.5 ml complete medium per well and incubated for 2 hours at 37° C. The plates were washed twice with RPMI by tapping the plate gently to remove the nonadherent cells and the adherent cells pulsed with 10 μg/ml of peptide in the presence of 3 μg/ml β2 microglobulin in 0.25 ml RPMI/5%AB per well for 2 hours at 37° C. Peptide solution from each well was aspirated and the wells were washed once with RPMI. Most of the media was aspirated from the induction cultures (CD8+ cells) and brought to 0.5 ml with fresh media. […]

HLA-A*0203 = HLA-A*0203 (Homo sapiens, UniProt P04439, A173T/D140Y/D185E/D98H/E277Q/G131W/G231S/I119V/I121R/I166T/I218V/L180W/L300P/L318F/N151K/N90K/P208A/P217A/Q86G/Q94H/R138H/R169H/T345S); assay type: binding
[3] = test system: peptide-pulsed target cells and transfected cells endogenously expressing the antigen; assay: Recall CTL responses of PBMCs from ovarian cancer patients; assay type: cell-based, human; conditions: data from ovarian cancer patients
From the text: Immunogenicity was additionally confirmed using PBMCs isolated from cancer patients. Briefly, PBMCs were isolated from two patients with ovarian cancer, re-stimulated with peptide-pulsed monocytes and assayed for the ability to recognize peptide-pulsed target cells as well as transfected cells endogenously expressing the antigen.

HLA-A*0206 = HLA-A*0206 (Homo sapiens, UniProt P04439, D140Y/D185E/D98H/E176V/E277Q/F33Y/G131W/G231S/I119V/I121R/I166T/I218V/L300P/L318F/N151K/N90K/P208A/P217A/Q86G/Q94H/R138H/R169H/T345S); assay type: binding
[4] = Table XXII, A2 supermotif peptides and analogs
[5] = HLA-A2 supermotif-bearing peptides, Table XXVII

## CC[C@H](NC(=O)[C@H](CC(C)C)NC(=O)[C@H](C)N)C(=O)N[C@@H](CCCNC(=N)N)C(=O)N[C@@H](Cc1c[nH]c2ccccc12)C(=O)NCC(=O)N[C@@H](CC(C)C)C(=O)N[C@@H](CC(C)C)C(=O)N[C@H](C(=O)O)C(C)C [Her2neu.5B3V9] (H-AL[Abu]RWGLLV-OH)
HLA-A*0201; [4]
  IC50: 0.018 µM
[1]
  recognition of wild-type peptide and of tumor targets endogenously expressing HER2/neu by induced CTL: no wild-type peptide or endogenous recognition was observed
[2]
  induction of peptide-specific CTL: induced peptide-specific CTLs in at least 2 donors

## CC(C)C[C@H](NC(=O)[C@H](CO)NC(=O)CNC(=O)[C@H](Cc1ccccc1)NC(=O)[C@@H](NC(=O)[C@@H](N)CCCCN)[C@@H](C)O)C(=O)N[C@@H](C)C(=O)N[C@@H](Cc1ccccc1)C(=O)N[C@H](C(=O)O)C(C)C
HLA-A*0201; [5]
  IC50: 0.035 µM
HLA-A*0203; Table XXVII
  IC50: 1.01 µM

## CC[C@H](C)[C@H](NC(=O)[C@H](CCSC)NC(=O)[C@H](Cc1c[nH]c2ccccc12)NC(=O)[C@H](CS)NC(=O)[C@H](CCCCN)NC(=O)[C@@H](NC(=O)[C@H](CCSC)NC(=O)[C@@H](NC(=O)[C@H](CCSC)NC(=O)[C@@H](N)Cc1ccc(O)cc1)[C@@H](C)CC)C(C)C)C(=O)O
[1]
  CTL Tumor: 0/1
  CTL Wildtype: 0/1
[3]
  CTL Tumor: 2/2
  CTL Wildtype: 2/2

## CC[C@H](NC(=O)[C@@H](NC(=O)[C@H](C)N)[C@@H](C)O)C(=O)N[C@@H](CCCNC(=N)N)C(=O)N[C@@H](Cc1c[nH]c2ccccc12)C(=O)NCC(=O)N[C@@H](CC(C)C)C(=O)N[C@@H](CC(C)C)C(=O)N[C@H](C(=O)O)C(C)C [Her2/neu.5.T2B3V9] (H-AT[Abu]RWGLLV-OH)
HLA-A*0201; [4]
  IC50: 16.7 µM
HLA-A*0206; [4]
  IC50: 2.18 µM

## CC[C@H](NC(=O)[C@H](CC(C)C)NC(=O)[C@H](C)N)C(=O)N[C@@H](CCCNC(=N)N)C(=O)N[C@@H](Cc1c[nH]c2ccccc12)C(=O)NCC(=O)N[C@@H](CC(C)C)C(=O)N[C@@H](CC(C)C)C(=O)N[C@@H](CC(C)C)C(=O)O [Her2/neu.5.B3]
HLA-A*0203; [4]
  IC50: 0.012 µM

## CC[C@H](C)[C@H](NC(=O)[C@H](CC(C)C)NC(=O)[C@@H](N)Cc1ccc(O)cc1)C(=O)N[C@@H](CCSC)C(=O)N[C@H](C(=O)N[C@@H](CCCCN)C(=O)N[C@@H](CS)C(=O)N[C@@H](Cc1c[nH]c2ccccc12)C(=O)N[C@@H](CCSC)C(=O)N[C@H](C(=O)O)C(C)C)C(C)C
HLA-A*0201; [5]
  IC50: 0.013 µM
HLA-A*0203; Table XXVII
  IC50: 0.116 µM
HLA-A*0206; Table XXVII
  IC50: 0.018 µM

## VLLGVVFGV
HLA-A*0201; [5]
  IC50: 0.0024 µM
HLA-A*0206; Table XXVII
  IC50: 0.006 µM

## VLIQRNPQV
HLA-A*0201
  IC50: 0.055 µM
HLA-A*0203; Table XXVII
  IC50: 0.135 µM
HLA-A*0206; Table XXVII
  IC50: 0.385 µM

## CC(C)C[C@H](NC(=O)[C@H](CO)NC(=O)CNC(=O)[C@H](Cc1ccccc1)NC(=O)[C@H](CC(C)C)NC(=O)[C@@H](N)CCCCN)C(=O)N[C@@H](C)C(=O)N[C@@H](Cc1ccccc1)C(=O)N[C@H](C(=O)O)C(C)C [Her2/neu.369L2V9]
[1]
  recognition of wild-type peptide and of tumor targets endogenously expressing HER2/neu by induced CTL: also recognized the target tumor cells
[2]
  induction of peptide-specific CTL: induced peptide-specific CTLs

## CC[C@H](C)[C@H](NC(=O)[C@H](CCC(=O)O)NC(=O)[C@@H](NC(=O)[C@H](CC(C)C)NC(=O)[C@@H](N)CO)[C@@H](C)O)C(=O)N[C@@H](CC(C)C)C(=O)N[C@@H](CCCCN)C(=O)NCC(=O)NCC(=O)N[C@H](C(=O)O)C(C)C [Her2/neu.144]
HLA-A*0203; [4]
  IC50: 0.022 µM

## CC[C@H](NC(=O)[C@H](CCSC)NC(=O)[C@H](C)N)C(=O)N[C@@H](CCCNC(=N)N)C(=O)N[C@@H](Cc1c[nH]c2ccccc12)C(=O)NCC(=O)N[C@@H](CC(C)C)C(=O)N[C@@H](CC(C)C)C(=O)N[C@H](C(=O)O)C(C)C [Her2/neu.5M2B3V9] (H-AM[Abu]RWGLLV-OH)
HLA-A*0201; [4]
  IC50: 0.036 µM
HLA-A*0203; [4]
  IC50: 0.016 µM
HLA-A*0206; [4]
  IC50: 0.726 µM

## CC(C)C[C@H](NC(=O)[C@H](CCC(N)=O)NC(=O)[C@@H](NC(=O)[C@@H](NC(=O)[C@H](CO)NC(=O)[C@@H](NC(=O)[C@H](CC(C)C)NC(=O)[C@@H](N)CS)[C@@H](C)O)[C@@H](C)O)C(C)C)C(=O)N[C@H](C(=O)O)C(C)C
[1]
  CTL Tumor: 0/4
  CTL Wildtype: 1/4
[3]
  CTL Wildtype: 1/2

## CC[C@H](C)[C@H](NC(=O)[C@H](CC(C)C)NC(=O)[C@@H](N)CO)C(=O)N[C@@H](CO)C(=O)N[C@@H](C)C(=O)N[C@H](C(=O)N[C@H](C(=O)NCC(=O)N[C@H](C(=O)O)C(C)C)C(C)C)C(C)C
HLA-A*0201; [5]
  IC50: 0.0071 µM
HLA-A*0203; Table XXVII
  IC50: 0.016 µM
HLA-A*0206; Table XXVII
  IC50: 0.02 µM

## CC[C@H](NC(=O)[C@H](CCCCN)NC(=O)[C@@H](NC(=O)[C@H](CCSC)NC(=O)[C@@H](NC(=O)[C@H](CC(C)C)NC(=O)[C@@H](N)Cc1ccc(O)cc1)[C@@H](C)CC)C(C)C)C(=O)N[C@@H](Cc1c[nH]c2ccccc12)C(=O)N[C@@H](CCSC)C(=O)N[C@H](C(=O)O)C(C)C [Her2/neu.952L2B7V10] (H-YLIMVK[Abu]WMV-OH)
HLA-A*0201; [4]
  IC50: 0.0072 µM
HLA-A*0203; [4]
  IC50: 0.077 µM
[1]
  recognition of wild-type peptide and of tumor targets endogenously expressing HER2/neu by induced CTL: no wild-type peptide or endogenous recognition was observed
HLA-A*0206; [4]
  IC50: 0.011 µM
[2]
  induction of peptide-specific CTL: induced peptide-specific CTLs in at least 2 donors

## CC(C)C[C@H](NC(=O)[C@H](CO)NC(=O)CNC(=O)[C@H](Cc1ccccc1)NC(=O)[C@@H](NC(=O)[C@@H](N)CCCCN)C(C)C)C(=O)N[C@@H](C)C(=O)N[C@@H](Cc1ccccc1)C(=O)N[C@H](C(=O)O)C(C)C [Position V2V9]
[1]
  recognition of wild-type peptide and of tumor targets endogenously expressing HER2/neu by induced CTL: also recognized the target tumor cells
[2]
  induction of peptide-specific CTL: induced peptide-specific CTLs

## CC[C@H](NC(=O)[C@@H](NC(=O)[C@H](C)N)C(C)C)C(=O)N[C@@H](CCCNC(=N)N)C(=O)N[C@@H](Cc1c[nH]c2ccccc12)C(=O)NCC(=O)N[C@@H](CC(C)C)C(=O)N[C@@H](CC(C)C)C(=O)N[C@H](C(=O)O)C(C)C [Her2/neu.5V2B3V9] (H-AV[Abu]RWGLLV-OH)
HLA-A*0201; [4]
  IC50: 10 µM
HLA-A*0203; [4]
  IC50: 0.141 µM
HLA-A*0206; [4]
  IC50: 2.18 µM

## H-VLLGVVFGV-OH [Her2/neu.665L2V9]
[1]
  recognition of wild-type peptide and of tumor targets endogenously expressing HER2/neu by induced CTL: Peptide-specific CTL activity was maintained in some of the cultures, but no corresponding endogenous recognition was observed
[2]
  induction of peptide-specific CTL: strong peptide-specific CTL response was observed

## H-QLMPYGCLL-OH [Her2/neu.799]
HLA-A*0203; [4]
  IC50: 0.114 µM
HLA-A*0206; [4]
  IC50: 0.712 µM
